Laboratory results published in patent publication US20070208166A1, “Tao Kinase Modulators And Method Of Use” (Exelixis, Inc., priority 2003, published 2007).

How the values were obtained:
Format in all cases: biochemical
[1] = target: T1, KIAA 1361 (baculovirus expressed human KIAA 1361 kinase domain 2-322) (Homo sapiens, UniProt Q7L7X3); assay: KIAA 1361 Luciferase-Coupled Chemiluminescent Kinase assay (LCCA); settings: 2 μM ATP, 10 μM MBP, 12 nM KIAA 1361, 2 hours; read-out: KIAA1361 inhibition IC50
T1 construct: human KIAA 1361 kinase domain 2-322; made in house
T1 sequence (Q7L7X3 2-322): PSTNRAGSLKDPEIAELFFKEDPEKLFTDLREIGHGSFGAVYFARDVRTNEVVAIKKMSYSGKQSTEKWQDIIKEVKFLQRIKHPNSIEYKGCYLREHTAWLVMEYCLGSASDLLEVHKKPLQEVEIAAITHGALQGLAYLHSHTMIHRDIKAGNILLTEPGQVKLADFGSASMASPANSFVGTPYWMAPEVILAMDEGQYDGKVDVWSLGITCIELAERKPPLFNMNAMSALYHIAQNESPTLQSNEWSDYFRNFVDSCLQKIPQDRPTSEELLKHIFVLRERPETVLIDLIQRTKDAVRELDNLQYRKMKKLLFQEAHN
Summary of the method: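 KIAA 1361 kinase domain 2-322 (baculovirus, 12 nM) with 2 μM ATP and 10 μM MBP in Tris pH 7.5, MgCl2, MnCl2; 2 h, ambient. Remaining ATP read by luciferase chemiluminescence; 10 concentrations, IC50 by four-parameter fit.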

TAO = target: T2, TAO (Homo sapiens, UniProt Q9UL54); assay: TAO Luciferase-Coupled Chemiluminescent Kinase assay (LCCA); settings: 2 μM ATP, 10 μM MBP, 12 nM TAO, 2 hours; read-out: TAO inhibition IC50
T2 sequence (Q9UL54 1-1235): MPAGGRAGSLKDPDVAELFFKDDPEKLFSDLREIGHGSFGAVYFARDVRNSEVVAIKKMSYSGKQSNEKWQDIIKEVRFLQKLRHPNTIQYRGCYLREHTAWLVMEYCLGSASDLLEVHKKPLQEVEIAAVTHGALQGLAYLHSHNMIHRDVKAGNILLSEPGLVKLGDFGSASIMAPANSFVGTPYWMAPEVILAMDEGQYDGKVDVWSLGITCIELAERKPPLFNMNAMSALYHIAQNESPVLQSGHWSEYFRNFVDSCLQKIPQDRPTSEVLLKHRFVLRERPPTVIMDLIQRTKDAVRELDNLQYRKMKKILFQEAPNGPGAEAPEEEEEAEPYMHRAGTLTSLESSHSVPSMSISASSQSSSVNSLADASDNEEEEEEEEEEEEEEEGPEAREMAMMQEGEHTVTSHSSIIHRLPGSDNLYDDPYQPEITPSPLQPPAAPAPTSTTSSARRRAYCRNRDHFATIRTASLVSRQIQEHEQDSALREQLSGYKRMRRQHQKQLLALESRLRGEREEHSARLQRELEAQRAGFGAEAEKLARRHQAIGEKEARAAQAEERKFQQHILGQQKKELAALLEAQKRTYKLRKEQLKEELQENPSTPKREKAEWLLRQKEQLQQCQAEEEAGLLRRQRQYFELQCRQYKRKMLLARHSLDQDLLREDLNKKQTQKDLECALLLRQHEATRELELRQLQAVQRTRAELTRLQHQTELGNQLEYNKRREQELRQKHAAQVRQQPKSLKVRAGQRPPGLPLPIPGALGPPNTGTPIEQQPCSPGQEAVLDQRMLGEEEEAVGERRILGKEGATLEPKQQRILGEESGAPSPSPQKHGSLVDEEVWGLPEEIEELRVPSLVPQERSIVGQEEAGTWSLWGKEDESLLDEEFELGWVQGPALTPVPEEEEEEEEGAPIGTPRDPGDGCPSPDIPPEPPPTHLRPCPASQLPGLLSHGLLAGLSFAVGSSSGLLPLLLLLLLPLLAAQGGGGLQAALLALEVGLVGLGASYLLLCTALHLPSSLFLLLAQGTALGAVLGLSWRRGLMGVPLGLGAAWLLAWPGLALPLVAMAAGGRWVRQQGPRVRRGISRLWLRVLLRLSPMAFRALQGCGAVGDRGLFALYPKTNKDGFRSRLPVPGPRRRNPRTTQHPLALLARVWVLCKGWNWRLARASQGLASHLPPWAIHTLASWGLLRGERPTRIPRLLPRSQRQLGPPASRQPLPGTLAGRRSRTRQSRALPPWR

JIK = target: T3, JIK (Homo sapiens, UniProt Q9H2K8); assay: JIK Luciferase-Coupled Chemiluminescent Kinase assay (LCCA); settings: 2 μM ATP, 10 μM MBP, 6 nM JIK, 2 hours; read-out: JIK inhibition IC50
T3 construct: 6 nM JIK (baculovirus expressed human KIAA 1361 kinase domain2-318); made in house
T3 sequence (Q9H2K8 2-318): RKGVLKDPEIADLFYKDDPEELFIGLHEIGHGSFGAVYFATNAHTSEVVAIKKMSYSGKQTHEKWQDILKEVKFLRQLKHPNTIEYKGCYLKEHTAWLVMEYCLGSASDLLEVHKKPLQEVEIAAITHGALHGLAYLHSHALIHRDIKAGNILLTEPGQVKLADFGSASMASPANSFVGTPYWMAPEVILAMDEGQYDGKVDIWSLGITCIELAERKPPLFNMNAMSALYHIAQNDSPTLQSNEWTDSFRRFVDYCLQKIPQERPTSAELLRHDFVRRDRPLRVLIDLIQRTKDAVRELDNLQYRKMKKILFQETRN
Summary of the method: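 Baculovirus-expressed human KIAA 1361 kinase domain 2-318 at 6 nM, with 10 μM MBP and 2 μM ATP in Tris pH 7.5 with Mg/Mn, ran 2 h at ambient temperature. Remaining ATP was read by luciferase chemiluminescence. IC50 comes from a 10-concentration four-parameter fit.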

Structure (SMILES)	IC50 [1]	IC50 (TAO)	IC50 (JIK)
O=C(CNCc1ccc(-c2ccccc2)cc1)NC1CCCc2ccccc21 (stereo not drawn) [Entry 69, N˜2˜-(biphenyl-4-ylmethyl)-N-(1,2,3,4-tetrahydronaphthalen-1-yl)glycinamide]	> 5000 nM	> 5000 nM	> 5000 nM
CCCCCCCc1ccc(C(=O)NCC(=O)NC2CCCc3ccccc32)cc1 (stereo not drawn) [Entry 12, 4-heptyl-N-[2-oxo-2-(1,2,3,4-tetrahydronaphthalen-1-ylamino)ethyl]benzamide]	50 to 500 nM	500 to 5000 nM	50 to 500 nM
CCc1ccc(-c2ccc(C(=O)NCC(=O)NCc3ccccc3C)cc2)cc1 [Entry 74, 4′-ethyl-N-(2-{[(2-methylphenyl)methyl]amino}-2-oxoethyl)biphenyl-4-carboxamide]	50 to 500 nM	50 to 500 nM	50 to 500 nM
O=C(CNC(=O)c1ccc(-c2cnco2)cc1)NC1CCCc2ccccc21 (stereo not drawn) [Entry 71, 4-(1,3-oxazol-5-yl)-N-[2-oxo-2-(1,2,3,4-tetrahydronaphthalen-1-ylamino)ethyl]benzamide]	50 to 500 nM	50 to 500 nM	< 50 nM
COc1ccc2nc(NC(=O)CNC(=O)CC(NC(C)=O)c3ccccc3)sc2c1 (stereo not drawn) [Entry 84, 3-(acetylamino)-N-(2-{[6-(methyloxy)-1,3-benzothiazol-2-yl]amino}-2-oxoethyl)-3-phenylpropanamide]	> 5000 nM	> 5000 nM	> 5000 nM
O=C(CNC(=O)c1ccc(N2CCOCC2)cc1)NC1CCCc2ccccc21 (stereo not drawn) [Entry 58, 4-morpholin-4-yl-N-[2-oxo-2-(1,2,3,4-tetrahydronaphthalen-1-ylamino)ethyl]benzamide]	> 5000 nM	> 5000 nM	500 to 5000 nM
O=C(CNC(=O)Nc1ccc(-c2ccccc2)cc1)NC1CCCc2ccccc21 (stereo not drawn) [Entry 73, N˜2˜-[(biphenyl-4-ylamino)carbonyl]-N-(1,2,3,4-tetrahydronaphthalen-1-yl)glycinamide]	> 5000 nM	> 5000 nM	50 to 500 nM
CCCCOc1ccc(C(=O)NCC(=O)NC2CCCc3ccccc32)cc1 (stereo not drawn) [Entry 27, 4-(butyloxy)-N-[2-oxo-2-(1,2,3,4-tetrahydronaphthalen-1-ylamino)ethyl]benzamide]	500 to 5000 nM	500 to 5000 nM	50 to 500 nM
CCOCCCn1c(=S)[nH]c2cc(C(=O)NCC3COc4ccccc4O3)ccc2c1=O (stereo not drawn) [Entry 39, N-(2,3-dihydro-1,4-benzodioxin-2-ylmethyl)-3-[3-(ethyloxy)propyl]-4-oxo-2-thioxo-1,2,3,4-tetrahydroquinazoline-7-carboxamide]	50 to 500 nM	50 to 500 nM	50 to 500 nM
COc1cc2cc(C(=O)NCC(=O)NC3CCCc4ccccc43)[nH]c2cc1OC (stereo not drawn) [Entry 59, 5,6-bis(methyloxy)-N-(2-oxo-2-(1,2,3,4-tetrahydronaphthalen-1-ylamino)ethyl]-1H-indole-2-carboxamide]	500 to 5000 nM	500 to 5000 nM	50 to 500 nM
O=C(CNC(=O)c1cnc2ccccc2c1)Nc1cccc2c1CCCC2 [Entry 87, N-[2-oxo-2-(5,6,7,8-tetrahydronaphthalen-1-ylamino)ethyl]quinoline-3-carboxamide]	> 5000 nM	> 5000 nM	> 5000 nM
O=C(CC(NC(=O)c1ccccc1)c1ccccc1)Nc1nc2ccc(O)cc2s1 (stereo not drawn) [Entry 97, N-{3-[(6-hydroxy-1,3-benzothiazol-2-yl)amino]-3-oxo-1-phenylpropyl)benzamide]	> 5000 nM	> 5000 nM	> 5000 nM
O=C(COc1ccc(-c2nccc(-c3ccccn3)n2)cc1)NCc1ccc(Cl)c(Cl)c1 [Entry 38, N-[(3,4-dichlorophenyl)methyl]-2-{[4-(4-pyridin-2-ylpyrimidin-2-yl)phenyl]oxy]acetamide]	< 50 nM	50 to 500 nM	< 50 nM
